The values below are quoted from earlier work in publication PMC8674134, “Safety and efficacy of avapritinib in advanced systemic mastocytosis: the phase 1 EXPLORER trial” (Nature Medicine, 2021).

One data set has as its system KIT D816V. Details: method as in PMID 16779792, PMID 15166033, PMID 19193436. The note with it: cited from earlier work.
The next data set has as its system mast cell leukemia (MCL). Set-up: method as in PMID 27355533. The note with it: patients with MCL; 95% CI, 6–54%; cited from earlier work.
In data set [1] the test system is advanced systemic mastocytosis (AdvSM). Details: method as in PMID 32392175. The following applies: post hoc exploratory analysis of pivotal phase 2 study; cited from earlier work.

As to `Cc1ccc(NC(=O)c2ccc(CN3CCN(C)CC3)cc2)cc1Nc1nccc(-c2cccnc2)n1` [Imatinib], in the data set with KIT D816V, the “Activity against KIT D816V” value is given as “lacks activity”.
Turning to `CO[C@@H]1[C@H](N(C)C(=O)c2ccccc2)C[C@H]2O[C@]1(C)n1c3ccccc3c3c4c(c5c6ccccc6n2c5c31)C(=O)NC4` [midostaurin], the “24-month OS” value in the data set on mast cell leukemia (MCL) is reported as 26%. For the same molecule, in data set [1], the “CR rate by IWG-MRT-ECNM criteria” value is reported as 2% and the “Responses by IWG-MRT-ECNM criteria, patients” value is reported as 28%.
